{"source": "patent US12090029B2", "about": "“Devices and methods for enhancing immunogenicity to intradermal vaccination” (VERSITECH LIMITED, priority 2016, dated 2024)", "origin": "cited, not measured here", "key": {"influenza vaccine": {"test_system": "influenza vaccine", "conditions": "mouse model, imiquimod cream applied (Zhang et al., 2014)"}, "influenza vaccination": {"test_system": "influenza vaccination", "conditions": "elderly subjects"}, "[1]": {"test_system": "vaccine influenza strains", "conditions": "young healthy individuals, topical application before intradermal trivalent influenza vaccine (Hung et al., 2016)"}}}
{"smiles": "CC(C)Cn1cnc2c(N)nc3ccccc3c21", "note": "[imiquimod]", "values": [{"measurement": "immunogenicity of influenza vaccine", "setting": "influenza vaccine", "value": "enhanced"}, {"measurement": "hospitalizations for influenza or pneumonia", "setting": "influenza vaccination; relative to a vaccine-only group", "value": "fewer"}, {"measurement": "seroconversion rate", "setting": "influenza vaccination; sustained to 1 year, relative to a vaccine-only group", "value": "earlier and better"}, {"measurement": "immunogenicity of influenza vaccination", "setting": "influenza vaccination; topical pre-treatment, relative to a vaccine-only group (Hung et al., 2014)", "value": "significantly expedited, augmented, and prolonged"}, {"measurement": "immunogenicity against the non-vaccine strains", "setting": "[1]", "value": "increased"}, {"measurement": "immunogenicity against the vaccine influenza strains", "setting": "[1]", "value": "significantly improved"}]}
